According to patent US6964983B2, “Compounds that modulate PPAR activity and methods for their preparation” (Warner-Lambert Company, LLC, priority 2002, dated 2005):
Where two headings read alike, the source gives them in different places.

Key:
hPPARβ = biological target: T1, hPPARβ (Homo sapiens, UniProt Q03181); assay: Transient transfection assay in HepG2 cells, Gal4-hPPARβ chimeric receptor, luciferase reporter; type: cell-based
T1 sequence (Q03181 171-441 limits assumed): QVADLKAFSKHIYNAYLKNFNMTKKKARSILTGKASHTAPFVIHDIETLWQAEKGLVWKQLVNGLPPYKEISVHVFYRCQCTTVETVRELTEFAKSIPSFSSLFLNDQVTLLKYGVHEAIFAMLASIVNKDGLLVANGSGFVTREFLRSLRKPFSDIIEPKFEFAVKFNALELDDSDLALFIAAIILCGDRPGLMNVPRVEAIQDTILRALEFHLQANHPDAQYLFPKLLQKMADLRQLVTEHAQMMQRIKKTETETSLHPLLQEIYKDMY
Method: 1. Test A. Transient Transfections Assay using the HepG2 Hepatoma Cell Line.
HepG2 cells were transiently transfected with an expression plasmids encoding hPPARα, hPPARβ or mPPARγ chimeric receptors and a reporter containing the yeast upstream activating sequence (UAS) upstream of the viral E1B promoter controlling a luciferase reporter gene. In addition, the plasmid pRSVβ-gal was used to control for transfection efficiency. HepG2 cells were grown in DMEM supplemented with 10% FBS and 1 μM non-essential amino acid. On the first day, cells were split into 100 mm dishes at 2.5×10^6/dish and incubated overnight at 37° C./5% CO2. On the second day the cells were transiently transfected with plasmid DNA encoding a chimeric receptor, the luciferase reporter gene; and β-gal. For each 100 mm dish, 15 μg of lucifease reporter (PG5E1b) DNA, 15 μg of Gal4-PPAR chimeric receptor DNA, and 1.5 μg of β-gal plasmid DNA were mixed with 1.4 ml of opti-MEM in the tube. 28 μl of LipoFectamine-2000 reagent was added to 1.4 ml of opti-MEM in the tube, and incubate for 5 min at RT. The diluted Lipofectamine-2000 reagent was combined with the DNA mixture, and incubate for 20 min at RT. After fresh medium was added to each 100 mm dish of cells, 2.8 ml of Lipofectamine2000-DNA mixture was added dropwise to the 100 mm dish containing 14 ml of medium, and incubate 37° C. overnight. On day three cells were trypsinized off the 100 mm dishes and re-plated on 96 well plates. Cells were plated at 2.5×10^4 cells per well in 150 μl of media and 50 μl of compound diluted by media was added. The test compound added were in the range from 50 μM to 50 pM. After addition of compounds, the plates were incubated at 37° C. for 24 hours. Subsequently cells were washed with once with 100 μl of PBS, lysed, and processed for measuring luciferase and β-gal activity using Dual-Light luciferase kit from Tropix ®, according to the manufacturer's recommendations, on an EG&G Bethold MicroLumat LB96P luminometer. EC50 values were obtained using the GraphPad Prism™ program.

[1] = Hep G2-hBeta EC50, 24 hours incubation, read-out: EC50β nM (Group)

SMILES | melting point | EC50 (hPPARβ; [1]) | EC50 (hPPARβ)
Cc1cc(SCc2ccc(-c3ccccc3)cc2)ccc1OCC(=O)O [Example 2, [4-(Biphenyl-4-ylmethylsulfanyl)-2-methyl-phenoxy]-acetic acid] | 138 °C |  | 
Cc1cc(SCc2ccc(OCc3ccccc3)cc2)ccc1OCC(=O)O [Example 13, [4-(4-Benzyloxy-benzylsulfanyl)-2-methyl-phenoxy]-acetic acid] | 120 to 121 °C |  | 
Cc1cc(/C=C/c2ccc(-c3ccc(C(F)(F)F)cc3)cc2)ccc1OCC(=O)O [Example 24, {2-Methyl-4-[2-(4′-trifluoromethyl-biphenyl-4-yl)-vinyl]-phenoxy}-acetic acid] | 243 to 245 °C |  | 
Cc1cc(SCc2ccc(Oc3ccccc3)cc2)ccc1OCC(=O)O [Example 47, [2-Methyl-4-(4-phenoxy-benzylsulfanyl)-phenoxy]-acetic acid] |  | > 5000 nM | 
Cc1cc(SCc2ccc(OCc3ccccn3)cc2)ccc1OCC(=O)O [Example 60, {2-Methyl-4-[4-(pyridine-2-ylmethoxy)-benzylsulfanyl]-phenoxy}-acetic acid] | 150 °C | > 5000 nM | 
Cc1cc(SCc2ccc(OCc3ccc(C(F)(F)F)cc3)cc2)c2c(c1OCC(=O)O)CCC2 [Example 64, {5-Methyl-7-[4-(4-trifluoromethyl-benzyloxy)-benzylsulfanyl]-indan-4-yloxy}-acetic acid] | 165 to 167 °C | > 5000 nM | 
O=C(O)COc1ccc(SCc2ccc(OCc3ccc(F)cc3)cc2)c2c1CCC2 [Example 65] | 153 to 155 °C | > 5000 nM | 
O=C(O)COc1ccc(SCc2ccc(OCc3ccc(F)cc3F)cc2)c2c1CCC2 [Example 66, {7-[4-(2,4-Difluoro-benzyloxy)-benzylsulfanyl]-indan-4-yloxy}-acetic acid] | 158 to 160 °C | > 5000 nM | 
CC(C)(C)c1ccc(COc2ccc(CSc3ccc(OCC(=O)O)c4c3CCC4)cc2)cc1 [Example 67, {7-[4-(4-tert-Butyl-benzyloxy)-benzylsulfanyl]-indan-4-yloxy}-acetic acid] | 152 to 153 °C |  | < 300 nM
O=C(O)COc1ccc(SCc2ccc(-c3ccc(C(F)(F)F)cn3)cc2)c2c1CCCO2 [Example 86, {8-[4-(5-Trifluoromethyl-pyridine-2-yl)-benzylsulfanyl]-chroman-5-yloxy}-acetic acid] | 178 to 179 °C |  | 
O=C(O)COc1ccc(SCc2cc(-c3ccc(C(F)(F)F)cc3)on2)c2c1CCCO2 [Example 94, {8-[5-(4-Trifluoromethyl-phenyl)-isoxazol-3-ylmethylsulfanyl]-chroman-5-yloxy}-acetic acid] | 171 to 173 °C |  | 
O=C(O)COc1ccc(SCc2cc(-c3ccc(Cl)cc3)on2)c2c1CCCO2 [Example 95, {8-[5-(4-Chloro-phenyl)-isoxazol-3-ylmethylsulfanyl]-chroman-5-yloxy}-acetic acid] | 181 to 183 °C |  | 
Cc1cc(SCc2cc(-c3ccc(Cl)cc3)on2)ccc1OCC(=O)O [Example 96, {4-[5-(4-Chloro-phenyl)-isoxazol-3-ylmethylsulfanyl]-2-methyl-phenoxy}-acetic acid] | 152 to 153 °C |  | 
O=C(O)COc1ccc(SCc2cc(-c3ccc(C(F)(F)F)cc3)on2)c2c1CCCC2 [Example 102, {4-[5-(4-trifluoromethyl-phenyl)-isoxazol-3-ylmethylsulfanyl]-5,6,7,8-tetrahydro-naphthalen-1-yloxy}-acetic acid] | 167 to 170 °C |  | 

Now from value to compound, other results behind:

melting point | EC50 (hPPARβ; [1]) | SMILES | EC50 (hPPARβ)
141 °C | 1000 to 2000 nM | COc1cc(OCC(=O)O)c(C)cc1SCc1ccc(-c2c(C)cc(C)cc2C)cc1 [Example 5, [5-Methoxy-2-methyl-4-(2′,4′,6′-trimethyl-biphenyl-4-ylmethylsulfanyl)-phenoxy]-acetic acid] | 
158 to 159 °C | < 300 nM | O=C(O)COc1ccc(SCc2ccc(-c3ccc(C(F)(F)F)cc3)cc2)c2c1CCC2 [Example 12, [7-(4′-Trifluoromethyl-biphenyl-4-ylmethylsulfanyl)-indan-4-yloxy]-acetic acid] | 
133 °C | < 300 nM | Cc1cc(SCc2ccc(OCc3ccc(C(F)(F)F)cc3)cc2)ccc1OCC(=O)O [Example 15, {2-Methyl-4-[4-(4-trifluoromethyl-benzyloxy)-benzylsulfanyl]-phenoxy}-acetic acid] | 
220 °C (dec.) | < 300 nM | O=C(O)COc1ccc(SCc2ccc(-c3ccc(C(F)(F)F)cn3)cc2)c2c1CCC2 [Example 26, {7-[4-(5-Trifluoromethyl-pyridin-2-yl)-benzylsulfanyl]-indan-4-yloxy}-acetic acid] | 
 | < 300 nM | Cc1cc(SCc2ccc(-c3ccc(C(F)(F)F)cn3)cc2)c(Cl)cc1OCC(=O)O [Example 37, {5-Chloro-2-methyl-4-[4-(5-trifluoromethyl-pyridin-2-yl)-benzylsulfanyl]-phenoxy}-acetic acid] | 
 | < 300 nM | COc1cc(OCC(=O)O)c(C)cc1SCc1ccc(-c2ccc(C(F)(F)F)cc2)cc1C [Example 39, [5-Methoxy-2-methyl-4-(3-methyl-4′-trifluoromethyl-biphenyl-4-ylmethylsulfanyl)-phenoxy]-acetic acid] | 
 | 500 to 1000 nM | O=C(O)COc1ccc(SCc2ccc(Cc3ccc(C(F)(F)F)cc3)cc2)c2c1CCC2 [Example 40, {7-[4-(4-trifluoromethyl-benzyl)-benzylsulfanyl]-indan-4-yloxy}-acetic acid] | 
 | 2000 to 5000 nM | COc1cc(OCC(=O)O)c(C)cc1S(=O)(=O)Cc1ccc(-c2ccc(C(F)(F)F)cc2)cc1 [Example 50, [5-Methoxy-2-methyl-4-(4′-trifluoromethyl-biphenyl-4-ylmethanesulfonyl)-phenoxy]-acetic acid] | 
 | 2000 to 5000 nM | COc1cc(OCC(=O)O)c(C)cc1[S+]([O-])Cc1ccc(-c2ccc(C(F)(F)F)cc2)cc1 (centres unmarked) [Example 51, [5-Methoxy-2-methyl-4-(4′-trifluoromethyl-biphenyl-4-ylmethanesulfinyl)-phenoxy]-acetic acid] | 
 | 300 to 500 nM | COc1cc(OCC(=O)O)c(C)cc1SCCc1cn(Cc2ccc(C(F)(F)F)cc2)c2ccccc12 [Example 54, (5-Methoxy-2-methyl-4-{2-[1-(4-trifluoromethyl-benzyl)-1H-indol-3-yl]-ethylsulfanyl}-phenoxy)-acetic acid] | 
164 °C | 2000 to 5000 nM | Cc1cc(SCc2ccc(OCc3ccc(Cl)cc3)cc2)ccc1OCC(=O)O [Example 58, {4-[4-(4-Chloro-benzyloxy)-benzylsulfanyl]-2-methyl-phenoxy}-acetic acid] | 
142 to 143 °C | 300 to 500 nM | Cc1cc(SCc2ccc(OCc3ccc(C(F)(F)F)cc3)cc2)c(Cl)cc1OCC(=O)O [Example 61, {5-Chloro-2-methyl-4-[4-(4-trifluoromethyl-benzyloxy)-benzylsulfanyl]-phenoxy}-acetic acid] | 
183 to 185 °C | 1000 to 2000 nM | COc1ccc(COc2ccc(CSc3ccc(OCC(=O)O)c4c3CCC4)cc2)cc1 [Example 68, {7-[4-(4-Methoxy-benzyloxy)-benzylsulfanyl]-indan-4-yloxy}-acetic acid] | 
145 to 147 °C | 2000 to 5000 nM | O=C(O)COc1ccc(SCc2ccc(OCc3ccccc3)cc2)c2c1CCC2 [Example 69, [7-(4-Benzyloxy-benzylsulfanyl)-indan-4-yloxy]-acetic acid] | 
170 to 172 °C | 500 to 1000 nM | O=C(O)COc1ccc(SCc2ccc(OCc3ccc(Cl)cc3)cc2)c2c1CCC2 [Example 70, {7-[4-(4-Chloro-benzyloxy)-benzylsulfanyl]-indan-4-yloxy}-acetic acid] | 
158 to 160 °C | 500 to 1000 nM | O=C(O)COc1ccc(SCc2ccc(OCc3cc(Cl)ccc3Cl)cc2)c2c1CCC2 [Example 71, {7-[4-(2,5-Dichloro-benzyloxy)-benzylsulfanyl]-indan-4-yloxy}-acetic acid] | 
168 °C | 1000 to 2000 nM | O=C(O)COc1ccc(SCc2ccc(OCc3ccc(Cl)c(Cl)c3)cc2)c2c1CCC2 [Example 72, {7-[4-(3,4-Dichloro-benzyloxy)-benzylsulfanyl]-indan-4-yloxy}-acetic acid] | 
